Data as given in patent publication US9624209B2, “Substituted phenylureas and phenylamides as vanilloid receptor ligands” (Gruenenthal GmbH, priority 2009, dated 2017).

target: T1, vanilloid receptor 1 (VR1/TRPV1 receptor) (Homo sapiens, UniProt Q8NER1); experiment: VR1/TRPV1 receptor affinity, capsaicin stimulus (human); format: cell-based, human being; parameters: key to (f) Ki (human being) [nM] Cap: result in words: AG=agonist; pAG=partial agonist; NE=no effect; conditions: @ 5 μM, Tables 8-12
T1 construct: expressed in transfected cells; host or cells: CHO K1 cells (ECACC), stably transfected
T1 sequence (Q8NER1 whole entry): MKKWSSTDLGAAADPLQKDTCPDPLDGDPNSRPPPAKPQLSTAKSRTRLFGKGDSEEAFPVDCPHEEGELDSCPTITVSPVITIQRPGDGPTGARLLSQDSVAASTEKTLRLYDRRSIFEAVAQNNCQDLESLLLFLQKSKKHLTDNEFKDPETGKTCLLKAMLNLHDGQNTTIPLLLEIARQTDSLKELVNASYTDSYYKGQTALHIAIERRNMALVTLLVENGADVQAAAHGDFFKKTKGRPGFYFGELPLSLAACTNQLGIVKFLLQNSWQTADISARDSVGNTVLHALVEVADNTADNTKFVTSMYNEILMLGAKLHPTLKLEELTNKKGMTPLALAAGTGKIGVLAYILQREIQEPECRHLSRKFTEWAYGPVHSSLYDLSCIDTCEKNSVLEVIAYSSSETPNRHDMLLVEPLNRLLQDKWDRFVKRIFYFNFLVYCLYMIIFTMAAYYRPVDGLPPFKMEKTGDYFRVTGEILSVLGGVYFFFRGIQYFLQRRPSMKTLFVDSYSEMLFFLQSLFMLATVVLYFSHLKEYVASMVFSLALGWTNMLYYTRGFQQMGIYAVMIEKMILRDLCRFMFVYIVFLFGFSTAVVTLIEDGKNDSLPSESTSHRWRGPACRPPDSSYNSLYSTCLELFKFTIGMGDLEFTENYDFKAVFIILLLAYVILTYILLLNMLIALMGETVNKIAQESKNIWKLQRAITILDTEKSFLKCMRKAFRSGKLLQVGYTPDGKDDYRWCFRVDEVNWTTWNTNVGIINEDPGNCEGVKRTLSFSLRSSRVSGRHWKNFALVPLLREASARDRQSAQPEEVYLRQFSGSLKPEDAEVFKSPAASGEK

Compound	(f) Ki (human being) [nM] Cap: inhibition (as a percentage) [% @ 5 μM]
1-[[2-(3,4-Difluoro-phenyl)-5-(trifluoromethyl)-2H-pyrazol-3-yl]-methyl]-3-[3-fluoro-4-(2-hydroxy-ethoxy-methyl)-phenyl]-urea [Example A132]	48
1-[[5-tert-Butyl-2-(3-fluorophenyl)-2H-pyrazol-3-yl]-methyl]-3-[3-fluoro-4-(3-hydroxy-azetidin-1-yl)-phenyl]-urea [Example C8]	53
2-Chloro-4-[[[2-(3-chlorophenyl)-5-(trifluoromethyl)-2H-pyrazol-3-yl]-methyl-carbamoyl]amino]-benzoic acid [Example E54]	20
4-[[[5-tert-Butyl-2-(3-chlorophenyl)-2H-pyrazol-3-yl]-methyl-carbamoyl]amino]-2-chloro-benzoic acid [Example E55]	28

same assay, conditions: Tables 8-12

Compound	(f) Ki (human being) [nM] Cap: result in words
COc1c(F)cc(C(C)C(=O)NCc2cc(C(C)(C)C)nn2-c2ccc(F)c(Cl)c2)cc1F (stereo not shown) [Example A5, N-[[5-tert-Butyl-2-(3-chloro-4-fluoro-phenyl)-2H-pyrazol-3-yl]-methyl]-2-(3,5-difluoro-4-methoxy-phenyl)-propionamide]	AG
CC(C)(C)c1cc(CNC(=O)Nc2cc(F)c(O)c(F)c2)n(-c2cccc(Cl)c2)n1 [Example A11, 1-[[5-tert-Butyl-2-(3-chlorophenyl)-2H-pyrazol-3-yl]-methyl]-3-(3,5-difluoro-4-hydroxy-phenyl)-urea]	AG
COc1ccc(NC(=O)NCc2cc(C(C)(C)C)nn2-c2cccc(Cl)c2)cc1OC [Example A13, 1-[[5-tert-Butyl-2-(3-chlorophenyl)-2H-pyrazol-3-yl]-methyl]-3-(3,4-dimethoxyphenyl)-urea]	AG
COc1cc(NC(=O)NCc2cc(C(F)(F)F)nn2-c2cccc(Cl)c2)ccc1O [Example A15, 1-[[2-(3-Chlorophenyl)-5-(trifluoromethyl)-2H-pyrazol-3-yl]-methyl]-3-(4-hydroxy-3-methoxy-phenyl)-urea]	AG
COc1ccc(NC(=O)NCc2cc(C(F)(F)F)nn2-c2cccc(Cl)c2)cc1O [Example A16, 1-[[2-(3-Chlorophenyl)-5-(trifluoromethyl)-2H-pyrazol-3-yl]-methyl]-3-(3-hydroxy-4-methoxy-phenyl)-urea]	AG
COCCOc1ccc(NC(=O)NCc2cc(C(C)(C)C)nn2-c2cccc(Cl)c2)cc1F [Example A17, 1-[[5-tert-Butyl-2-(3-chlorophenyl)-2H-pyrazol-3-yl]-methyl]-3-[3-fluoro-4-(2-methoxy-ethoxy)-phenyl]-urea]	AG
CC(C)(C)c1cc(CNC(=O)Nc2ccc(OCC(O)CO)c(F)c2)n(-c2cccc(Cl)c2)n1 (stereo not shown) [Example A24, 1-[[5-tert-Butyl-2-(3-chlorophenyl)-2H-pyrazol-3-yl]-methyl]-3-[4-(2,3-dihydroxy-propoxy)-3-fluoro-phenyl]-urea]	AG
CC(C(=O)NCc1cc(C(C)(C)C)nn1-c1cccc(Cl)c1)c1ccc(CO)c(F)c1 (stereo not shown) [Example A32, N-[[5-tert-Butyl-2-(3-chlorophenyl)-2H-pyrazol-3-yl]-methyl]-2-[3-fluoro-4-(hydroxymethyl)-phenyl]-propionamide]	AG
CC(C(=O)NCc1cc(C(C)(C)C)nn1-c1cccc(F)c1)c1ccc(CO)c(F)c1 (stereo not shown) [Example A37, N-[[5-tert-Butyl-2-(3-fluorophenyl)-2H-pyrazol-3-yl]-methyl]-2-[3-fluoro-4-(hydroxymethyl)-phenyl]-propionamide]	AG
CC(C(=O)NCc1cc(C(C)(C)C)nn1-c1ccc(F)c(F)c1)c1ccc(CO)c(F)c1 (stereo not shown) [Example A39, N-[[5-tert-Butyl-2-(3,4-difluoro-phenyl)-2H-pyrazol-3-yl]-methyl]-2-[3-fluoro-4-(hydroxymethyl)-phenyl]-propionamide]	AG
CC(C(=O)NCc1cc(C(C)(C)C)nn1-c1ccc(F)c(Cl)c1)c1ccc(CO)c(F)c1 (stereo not shown) [Example A41, N-[[5-tert-Butyl-2-(3-chloro-4-fluoro-phenyl)-2H-pyrazol-3-yl]-methyl]-2-[3-fluoro-4-(hydroxymethyl)-phenyl]-propionamide]	AG

same assay, conditions: Tables 8-12, read-out: (f) Ki (human being) [nM] Cap

Compound	Ki [nM]
1-[[5-tert-Butyl-2-(3-chlorophenyl)-2H-pyrazol-3-yl]-methyl]-3-[3-fluoro-4-(hydroxymethyl)-phenyl]-urea [Example A55]	3
4-[1-[[2-(3-Chlorophenyl)-5-(trifluoromethyl)-2H-pyrazol-3-yl]-methyl-carbamoyl]-ethyl]-2-fluoro-N-(oxetan-3-yl)-benzamide [Example E19]	41
4-[1-[[2-(3-Chlorophenyl)-5-(trifluoromethyl)-2H-pyrazol-3-yl]-methyl-carbamoyl]-ethyl]-2-fluoro-N-[4-(trifluoromethyl)-phenyl]-benzamide [Example E48]	27
4-[1-[[2-(3-Chlorophenyl)-5-(trifluoromethyl)-2H-pyrazol-3-yl]-methyl-carbamoyl]-ethyl]-2-fluoro-N-methyl-benzamide [Example E11]	11
4-[1-[[2-(3-Chlorophenyl)-5-(trifluoromethyl)-2H-pyrazol-3-yl]-methyl-carbamoyl]-ethyl]-2-fluoro-N-thiazol-2-yl-benzamide [Example E52]	59
4-[1-[[5-tert-Butyl-2-(3-chloro phenyl)-2H-pyrazol-3-yl]-methyl-carbamoyl]-ethyl]-N-(3-fluorophenyl)-benzamide [Example E40]	4
4-[1-[[5-tert-Butyl-2-(3-chlorophenyl)-2H-pyrazol-3-yl]-methyl-carbamoyl]-ethyl]-2-fluoro-N-[4-(trifluoromethyl)-phenyl]-benzamide [Example E49]	3
4-[1-[[5-tert-Butyl-2-(3-chlorophenyl)-2H-pyrazol-3-yl]-methyl-carbamoyl]-ethyl]-2-fluoro-N-phenyl-benzamide [Example E29]	5
4-[1-[[5-tert-Butyl-2-(3-chlorophenyl)-2H-pyrazol-3-yl]-methyl-carbamoyl]-ethyl]-N-(4-chlorophenyl)-2-fluoro-benzamide [Example E35]	2
4-[1-[[5-tert-Butyl-2-(3-chlorophenyl)-2H-pyrazol-3-yl]-methyl-carbamoyl]-ethyl]-N-(4-chlorophenyl)-benzamide [Example E34]	0.5
4-[1-[[5-tert-Butyl-2-(3-chlorophenyl)-2H-pyrazol-3-yl]-methyl-carbamoyl]-ethyl]-N-(4-fluorophenyl)-benzamide [Example E42]	1
4-[1-[[5-tert-Butyl-2-(3-chlorophenyl)-2H-pyrazol-3-yl]-methyl-carbamoyl]-ethyl]-N-[4-(trifluoromethyl)-phenyl]-benzamide [Example E47]	3
4-[1-[[5-tert-Butyl-2-(3-chlorophenyl)-2H-pyrazol-3-yl]-methyl-carbamoyl]-ethyl]-N-phenyl-benzamide [Example E27]	2
4-[[[2-(3-Chlorophenyl)-5-(trifluoromethyl)-2H-pyrazol-3-yl]-methyl-carbamoyl]-methyl]-2-fluoro-N-(4-fluorophenyl)-benzamide [Example E38]	3
4-[[[2-(3-Chlorophenyl)-5-(trifluoromethyl)-2H-pyrazol-3-yl]-methyl-carbamoyl]-methyl]-N-(4-fluorophenyl)-benzamide [Example E36]	14
4-[[[2-(3-Chlorophenyl)-5-(trifluoromethyl)-2H-pyrazol-3-yl]-methyl-carbamoyl]-methyl]-N-[4-(trifluoromethyl)-phenyl]-benzamide [Example E51]	49
4-[[[2-(3-Chlorophenyl)-5-(trifluoromethyl)-2H-pyrazol-3-yl]-methyl-carbamoyl]-methyl]-N-phenyl-benzamide [Example E26]	25
4-[[[5-tert-Butyl-2-(3-chlorophenyl)-2H-pyrazol-3-yl]-methyl-carbamoyl]-methyl]-2-fluoro-N-(4-fluorophenyl)-benzamide [Example E39]	2
4-[[[5-tert-Butyl-2-(3-chlorophenyl)-2H-pyrazol-3-yl]-methyl-carbamoyl]-methyl]-N-(4-chlorophenyl)-benzamide [Example E30]	3
4-[[[5-tert-Butyl-2-(3-chlorophenyl)-2H-pyrazol-3-yl]-methyl-carbamoyl]-methyl]-N-(4-fluorophenyl)-benzamide [Example E37]	5
4-[[[5-tert-Butyl-2-(3-chlorophenyl)-2H-pyrazol-3-yl]-methyl-carbamoyl]-methyl]-N-[4-(trifluoromethyl)-phenyl]-benzamide [Example E50]	12
4-[[[5-tert-Butyl-2-(3-chlorophenyl)-2H-pyrazol-3-yl]-methyl-carbamoyl]amino]-2-chloro-benzoic acid methyl ester [Example E60]	19
4-[[[5-tert-Butyl-2-(3-chlorophenyl)-2H-pyrazol-3-yl]-methyl-carbamoyl]amino]-2-fluoro-N,N-dimethyl-benzamide [Example E12]	62
4-[[[5-tert-Butyl-2-(3-chlorophenyl)-2H-pyrazol-3-yl]-methyl-carbamoyl]amino]-2-methoxy-benzamide [Example E7]	66
CC(C(=O)NCc1cc(C(F)(F)F)nn1-c1cccc(Cl)c1)c1ccc(CO)c(Cl)c1 (stereo not shown) [Example A36, 2-[3-Chloro-4-(hydroxymethyl)-phenyl]-N-[[2-(3-chlorophenyl)-5-(trifluoromethyl)-2H-pyrazol-3-yl]-methyl]-propionamide]	0.3
